From US8410112B2, “Compounds useful as inhibitors of ATR kinase” (Vertex Pharmaceuticals Incorporated, priority 2008, dated 2013)

target: T1, full-length ATR (Homo sapiens, UniProt Q13535); experiment: ATR Inhibition Assay (radioactive-phosphate incorporation); type: biochemical; conditions: Ki(app); 5 nM full-length ATR, 10 μM ATP, 800 μM target peptide, 25° C.
T1 construct: in the presence of 5 nM full-length ATR
How it was run: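 After a 10-min pre-incubation of compound with 5 nM enzyme at 25 °C, ATP was added to start the reaction (final 10 μM [γ-33P]ATP, 800 μM peptide; Tris/HCl pH 7.5, MgCl2, DTT), which ran 24 h. Incorporated 33P was captured on phosphocellulose filters, and Ki(app) was fitted by non-linear regression.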

T1 sequence (Q13535 whole entry): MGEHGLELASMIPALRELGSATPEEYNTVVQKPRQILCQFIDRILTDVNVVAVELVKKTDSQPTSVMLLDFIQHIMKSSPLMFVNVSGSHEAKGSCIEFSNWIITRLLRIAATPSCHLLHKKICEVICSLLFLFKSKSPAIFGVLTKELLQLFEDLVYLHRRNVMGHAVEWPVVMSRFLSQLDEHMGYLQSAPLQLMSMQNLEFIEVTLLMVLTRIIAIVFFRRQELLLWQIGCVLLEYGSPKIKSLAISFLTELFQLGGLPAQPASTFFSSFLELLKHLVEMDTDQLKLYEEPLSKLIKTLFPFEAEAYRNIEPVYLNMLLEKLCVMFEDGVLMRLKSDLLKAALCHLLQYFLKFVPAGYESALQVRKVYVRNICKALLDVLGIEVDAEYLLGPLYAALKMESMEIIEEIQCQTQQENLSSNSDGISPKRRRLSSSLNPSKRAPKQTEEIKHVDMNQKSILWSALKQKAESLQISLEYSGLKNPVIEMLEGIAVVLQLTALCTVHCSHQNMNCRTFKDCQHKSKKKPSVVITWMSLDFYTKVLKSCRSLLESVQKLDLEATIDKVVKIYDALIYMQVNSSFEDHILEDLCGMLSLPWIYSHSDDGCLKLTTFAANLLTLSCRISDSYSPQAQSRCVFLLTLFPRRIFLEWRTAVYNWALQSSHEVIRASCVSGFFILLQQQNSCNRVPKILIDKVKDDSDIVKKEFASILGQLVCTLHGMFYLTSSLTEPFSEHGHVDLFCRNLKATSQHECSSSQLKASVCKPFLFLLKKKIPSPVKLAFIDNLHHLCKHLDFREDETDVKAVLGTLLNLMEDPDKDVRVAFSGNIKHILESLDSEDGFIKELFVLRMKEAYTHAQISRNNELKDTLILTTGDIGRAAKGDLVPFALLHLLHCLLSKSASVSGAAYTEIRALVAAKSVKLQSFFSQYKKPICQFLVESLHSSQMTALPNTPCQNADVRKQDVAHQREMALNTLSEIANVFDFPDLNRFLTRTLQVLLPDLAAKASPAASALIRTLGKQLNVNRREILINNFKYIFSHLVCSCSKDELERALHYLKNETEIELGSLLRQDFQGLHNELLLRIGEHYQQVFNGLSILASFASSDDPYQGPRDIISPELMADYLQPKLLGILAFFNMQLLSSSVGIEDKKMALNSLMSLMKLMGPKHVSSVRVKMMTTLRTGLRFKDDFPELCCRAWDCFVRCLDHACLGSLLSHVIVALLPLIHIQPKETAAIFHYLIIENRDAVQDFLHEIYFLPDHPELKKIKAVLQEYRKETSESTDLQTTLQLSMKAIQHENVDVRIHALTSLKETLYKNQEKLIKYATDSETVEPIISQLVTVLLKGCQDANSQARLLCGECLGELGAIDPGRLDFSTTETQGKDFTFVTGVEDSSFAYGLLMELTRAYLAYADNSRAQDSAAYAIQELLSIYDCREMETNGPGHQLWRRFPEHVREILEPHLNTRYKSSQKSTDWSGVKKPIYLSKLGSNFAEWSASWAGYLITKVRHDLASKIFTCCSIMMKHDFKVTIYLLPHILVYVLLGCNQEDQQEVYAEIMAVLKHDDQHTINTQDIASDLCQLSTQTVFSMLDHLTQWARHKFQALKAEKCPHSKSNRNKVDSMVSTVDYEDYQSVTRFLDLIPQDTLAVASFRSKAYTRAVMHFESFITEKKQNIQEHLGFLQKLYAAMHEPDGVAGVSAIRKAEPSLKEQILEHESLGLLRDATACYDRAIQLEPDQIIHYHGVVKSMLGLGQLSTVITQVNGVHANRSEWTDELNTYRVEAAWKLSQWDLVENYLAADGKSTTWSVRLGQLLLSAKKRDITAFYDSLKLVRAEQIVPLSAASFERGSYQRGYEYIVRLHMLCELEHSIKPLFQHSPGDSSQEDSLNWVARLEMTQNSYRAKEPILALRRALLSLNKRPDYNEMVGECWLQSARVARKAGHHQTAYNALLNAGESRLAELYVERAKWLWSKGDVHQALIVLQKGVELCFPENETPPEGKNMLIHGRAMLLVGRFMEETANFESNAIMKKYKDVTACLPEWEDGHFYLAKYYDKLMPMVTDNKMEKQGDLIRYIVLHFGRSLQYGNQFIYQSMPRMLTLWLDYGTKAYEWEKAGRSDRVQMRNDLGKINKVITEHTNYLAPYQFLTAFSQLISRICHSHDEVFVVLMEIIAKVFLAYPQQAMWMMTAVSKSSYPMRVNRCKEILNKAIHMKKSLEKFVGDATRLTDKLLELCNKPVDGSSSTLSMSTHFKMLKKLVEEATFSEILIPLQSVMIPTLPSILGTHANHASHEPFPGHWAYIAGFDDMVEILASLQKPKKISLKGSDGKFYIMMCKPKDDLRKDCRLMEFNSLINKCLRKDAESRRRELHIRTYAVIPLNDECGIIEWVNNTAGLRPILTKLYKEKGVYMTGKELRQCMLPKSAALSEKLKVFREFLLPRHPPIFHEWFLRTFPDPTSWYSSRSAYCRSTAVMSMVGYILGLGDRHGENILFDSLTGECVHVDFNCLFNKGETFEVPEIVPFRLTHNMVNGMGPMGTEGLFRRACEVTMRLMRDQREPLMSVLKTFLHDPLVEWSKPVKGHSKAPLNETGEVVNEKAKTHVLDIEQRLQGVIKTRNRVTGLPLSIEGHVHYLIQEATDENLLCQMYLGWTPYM

Ki	Structure (SMILES)
1000 to 10000 nM	Nc1ncc(N2CCN(C(=O)C3CCC3)CC2)nc1-c1nc2ccccc2[nH]1 [Compound I-174, (4-(5-amino-6-(1H-benzo[d]imidazol-2-yl)pyrazin-2-yl)piperazin-1-yl)(cyclobutyl)methanone]
100 to 1000 nM	Nc1ncc(N2CC[C@H](NC(=O)c3ccccn3)C2)nc1-c1nc2ccccc2[nH]1 [Compound I-193, (S)-N-(1-(5-amino-6-(1H-benzo[d]imidazol-2-yl)pyrazin-2-yl)pyrrolidin-3-yl)pyridine-2-carboxamide]
1000 to 10000 nM	CCS(=O)(=O)N1CCN(c2cnc(N)c(-c3noc(C)n3)n2)CC1 [Compound I-38, 5-(4-(ethylsulfonyl)piperazin-1-yl)-3-(5-methyl-1,2,4-oxadiazol-3-yl)pyrazin-2-amine]
1000 to 10000 nM	COCCOCC(=O)N[C@H]1CCN(c2cnc(N)c(-c3nc4ccccc4[nH]3)n2)C1 [Compound I-181, (S)-N-(1-(5-amino-6-(1H-benzo[d]imidazol-2-yl)pyrazin-2-yl)pyrrolidin-3-yl)-2-(2-methoxyethoxy)ethanamide]
100 to 1000 nM	CC(C)S(=O)(=O)N1CCN(c2cnc(N)c(-c3nc4ccccc4[nH]3)n2)CC1 [Compound I-97, 3-(1H-benzo[d]imidazol-2-yl)-5-(4-(isopropylsulfonyl)piperazin-1-yl)pyrazin-2-amine]
1000 to 10000 nM	COC(=O)N1CCN(c2cnc(N)c(-c3nc4ccccc4[nH]3)n2)CC1 [Compound I-268, methyl 4-(5-amino-6-(1H-benzo[d]imidazol-2-yl)pyrazin-2-yl)piperazine-1-carboxylate]
1000 to 10000 nM	Cc1ccc2nc(-c3nc(N4CCN(c5cccc(F)c5)CC4)cnc3N)[nH]c2c1 [Compound I-47, 5-(4-(3-fluorophenyl)piperazin-1-yl)-3-(6-methyl-1H-benzo[d]imidazol-2-yl)pyrazin-2-amine]
1000 to 10000 nM	COCC(=O)N[C@H]1CCN(c2cnc(N)c(-c3nc4ccccc4[nH]3)n2)C1 [Compound I-182, (S)-N-(1-(5-amino-6-(1H-benzo[d]imidazol-2-yl)pyrazin-2-yl)pyrrolidin-3-yl)-2-methoxyethanamide]
100 to 1000 nM	CCCS(=O)(=O)N1CCN(c2cnc(N)c(-c3nc4ccccc4[nH]3)n2)CC1 [Compound I-95, 3-(1H-benzo[d]imidazol-2-yl)-5-(4-(propylsulfonyl)piperazin-1-yl)pyrazin-2-amine]
100 to 1000 nM	Cc1ccc2nc(-c3nc(N4CCNC(=O)C4)cnc3N)[nH]c2c1 [Compound I-7, 4-(5-amino-6-(6-methyl-1H-benzo[d]imidazol-2-yl)pyrazin-2-yl)piperazin-2-one]
1000 to 10000 nM	Nc1ncc(N2CC[C@H](N)C2)nc1-c1nc2ccccc2[nH]1 [Compound I-39, (S)-5-(3-aminopyrrolidin-1-yl)-3-(1H-benzo[d]imidazol-2-yl)pyrazin-2-amine]
100 to 1000 nM	CCS(=O)(=O)N1CCN(c2cnc(N)c(C(=O)Nc3ccccn3)n2)CC1 [Compound I-55, 3-amino-6-(4-(ethylsulfonyl)piperazin-1-yl)-N-(pyridin-2-yl)pyrazine-2-carboxamide]
100 to 1000 nM	Nc1ncc(N2CCN(S(=O)(=O)c3ccoc3)CC2)nc1-c1nc2ccccc2[nH]1 [Compound I-269, 3-(1H-benzo[d]imidazol-2-yl)-5-(4-(furan-3-ylsulfonyl)piperazin-1-yl)pyrazin-2-amine]

Second part, the molecule before the results:

Structure (SMILES)	Ki
Nc1ncc(N2CC[C@H](NC(=O)COc3ccccc3)C2)nc1-c1nc2ccccc2[nH]1 [Compound I-205, (S)-N-(1-(5-amino-6-(1H-benzo[d]imidazol-2-yl)pyrazin-2-yl)pyrrolidin-3-yl)-2-phenoxyethanamide]	100 to 1000 nM
CCC(=O)N1CC=C(c2cnc(N)c(-c3nnc(-c4ccccc4)o3)n2)CC1 [Compound I-301, 1-[4-[5-amino-6-(5-phenyl-1,3,4-oxadiazol-2-yl)pyrazin-2-yl]-3,6-dihydro-2H-pyridin-1-yl]propan-1-one]	< 100 nM
Nc1ncc(C2=CCN(C(=O)C3CCC3)CC2)nc1-c1nc2ccccc2[nH]1 [Compound I-200, (4-(5-amino-6-(1H-benzo[d]imidazol-2-yl)pyrazin-2-yl)-5,6-dihydropyridin-1(2H)-yl)(cyclobutyl)methanone]	< 100 nM
CCS(=O)(=O)N1CC=C(c2cnc(N)c(C(=O)Nc3n[nH]c4ccccc34)n2)CC1 [Compound I-169, 3-amino-6-(1-(ethylsulfonyl)-1,2,3,6-tetrahydropyridin-4-yl)-N-(1H-indazol-3-yl)pyrazine-2-carboxamide]	< 100 nM
Nc1ncc(C2=CCN(C(=O)c3cccnc3)CC2)nc1-c1nc2ccccc2[nH]1 [Compound I-191]	100 to 1000 nM
Nc1ncc(N2CCN(C(=O)N3CCOCC3)CC2)nc1-c1nnc(-c2ccccc2)o1 [Compound I-216, (4-(5-amino-6-(5-phenyl-1,3,4-oxadiazol-2-yl)pyrazin-2-yl)piperazin-1-yl)(morpholino)methanone]	100 to 1000 nM
Nc1ncc(N2CCN(C(=O)C3CCCCC3)CC2)nc1-c1nnc(-c2ccccc2)o1 [Compound I-251, (4-(5-amino-6-(5-phenyl-1,3,4-oxadiazol-2-yl)pyrazin-2-yl)piperazin-1-yl)(cyclohexyl)methanone]	100 to 1000 nM
CCS(=O)(=O)N1C2CCC1CN(c1cnc(N)c(-c3nnc(-c4ccc(CNC)cc4)o3)n1)C2 [Compound I-341, 5-(8-Ethylsulfonyl-3,8-diazabicyclo[3.2.1]octan-3-yl)-3-[5-[4-(methylaminomethyl)phenyl]-1,3,4-oxadiazol-2-yl]pyrazin-2-amine]	100 to 1000 nM
CCC(=O)NC1CC[C@H]2CN(c3cnc(N)c(-c4nnc(-c5ccc(CNC)cc5)o4)n3)C[C@@H]12 (stereo partly drawn) [Compound I-355, N-((3aS,6aR)-2-(5-Amino-6-(5-(4-((methylamino)methyl)phenyl)-1,3,4-oxadiazol-2-yl)pyrazin-2-yl)octahydrocyclopenta[c]pyrrol-4-yl)propionamide]	100 to 1000 nM
CCC(=O)NC1[C@H]2CN(c3cnc(N)c(-c4nnc(-c5ccc(CNC)cc5)o4)n3)C[C@@H]12 (stereo partly drawn) [Compound I-358, N-[(1S,5R)-3-[5-amino-6-[5-[4-(methylaminomethyl)phenyl]-1,3,4-oxadiazol-2-yl]pyrazin-2-yl]-3-azabicyclo[3.1.0]hexan-6-yl]propanamide]	100 to 1000 nM
Nc1ncc(N2C[C@@H]3CCC(=O)[C@@H]3C2)nc1-c1nnc(-c2ccccc2)o1 [Compound I-319, (3aS,6aR)-2-(5-Amino-6-(5-phenyl-1,3,4-oxadiazol-2-yl)pyrazin-2-yl)hexahydrocyclopenta[c]pyrrol-4(5H)-one]	100 to 1000 nM
Nc1ncc(N2CCNCC2)nc1-c1nnc(-c2ccccc2)o1 [Compound I-37, 3-(5-phenyl-1,3,4-oxadiazol-2-yl)-5-(piperazin-1-yl)pyrazin-2-amine]	1000 to 10000 nM
Nc1ncc(C2=CCN(C(=O)C3CC3)CC2)nc1-c1nnc(-c2ccccc2)o1 [Compound I-285, [4-[5-amino-6-(5-phenyl-1,3,4-oxadiazol-2-yl)pyrazin-2-yl]-3,6-dihydro-2H-pyridin-1-yl]-cyclopropyl-methanone]	< 100 nM
CN(C)C(=O)N1CC=C(c2cnc(N)c(-c3nnc(-c4ccccc4)o3)n2)CC1 [Compound I-220, 4-(5-amino-6-(5-phenyl-1,3,4-oxadiazol-2-yl)pyrazin-2-yl)-N,N-dimethyl-5,6-dihydropyridine-1(2H)-carboxamide]	< 100 nM
Cc1ccc2nc(-c3nc(N4CCC(C(F)(F)F)CC4)cnc3N)[nH]c2c1 [Compound I-31, 3-(6-methyl-1H-benzo[d]imidazol-2-yl)-5-(4-(trifluoromethyl)piperidin-1-yl)pyrazin-2-amine]	1000 to 10000 nM
Nc1ncc(N2CCN(S(=O)(=O)C3CC3)CC2)nc1C(=O)Nc1ccccn1 [Compound I-118, 3-amino-6-(4-(cyclopropylsulfonyl)piperazin-1-yl)-N-(pyridin-2-yl)pyrazine-2-carboxamide]	100 to 1000 nM
CNCc1ccc(-c2nnc(-c3nc(N4CCC(N5CCCC5=O)CC4)cnc3N)o2)cc1 [Compound I-364, 1-(1-(5-Amino-6-(5-(4-((methylamino)methyl)phenyl)-1,3,4-oxadiazol-2-yl)pyrazin-2-yl)piperidin-4-yl)pyrrolidin-2-one]	100 to 1000 nM
CN(C)[C@@H]1CCN(C(=O)N2CC=C(c3cnc(N)c(-c4nc5ccccc5[nH]4)n3)CC2)C1 [Compound I-278, (R)-(4-(5-amino-6-(1H-benzo[d]imidazol-2-yl)pyrazin-2-yl)-5,6-dihydropyridin-1(2H)-yl)(3-(dimethylamino)pyrrolidin-1-yl)methanone]	100 to 1000 nM
Nc1ncc(N2C[C@@H]3CCC(O)[C@@H]3C2)nc1-c1nnc(-c2ccccc2)o1 (stereo in doubt) [Compound I-318, (3aR,6aS)-2-[5-Amino-6-(5-phenyl-1,3,4-oxadiazol-2-yl)pyrazin-2-yl]-3,3a,4,5,6,6a-hexahydro-1H-cyclopenta[c]pyrrol-6-ol]	< 100 nM
CCC(=O)N1C[C@@H]2C[C@@H]1CN2c1cnc(N)c(-c2nnc(-c3ccc(CNC)cc3)o2)n1 [Compound I-334, 1-[(1S,4R)-2-[5-Amino-6-[5-[4-(methylaminomethyl)phenyl]-1,3,4-oxadiazol-2-yl]pyrazin-2-yl]-2,5-diazabicyclo[2.2.1]heptan-5-yl]propan-1-one]	100 to 1000 nM
Nc1ncc(N2CCN(C(=O)C3CCC3)CC2)nc1-c1nnc(-c2ccccc2)o1 [Compound I-189, (4-(5-amino-6-(5-phenyl-1,3,4-oxadiazol-2-yl)pyrazin-2-yl)piperazin-1-yl)(cyclobutyl)methanone]	100 to 1000 nM
Nc1ncc(N2CCN(C(=O)COc3ccccc3)CC2)nc1-c1nnc(-c2ccccc2)o1 [Compound I-195, 1-(4-(5-amino-6-(5-phenyl-1,3,4-oxadiazol-2-yl)pyrazin-2-yl)piperazin-1-yl)-2-phenoxyethanone]	1000 to 10000 nM
